Measured values published in patent US9085576B2 (AMGEN INC., priority 2013, dated 2015).

Experiments:
BACE = BACE (Homo sapiens (Human), UniProt P56817); assay: In vitro BACE cell-based assay (Aβ40 in conditioned medium, sandwich ELISA)
[1] = target: Beta Secretase enzyme (BACE) (Homo sapiens (Human), UniProt P56817); assay: In vitro enzymatic BACE FRET assay; format: biochemical; details: read-out: BACE1 Enzyme assay IC50
Cathepsin D (Cat D) = Cathepsin D (Cat D) (Homo sapiens (Human), UniProt P07339); assay: In vitro enzymatic Cathepsin D (Cat D) FRET assay; format: biochemical; details: read-out: CatD IC50
Sequence of Cathepsin D (Cat D) (P07339 65-412, species assumed): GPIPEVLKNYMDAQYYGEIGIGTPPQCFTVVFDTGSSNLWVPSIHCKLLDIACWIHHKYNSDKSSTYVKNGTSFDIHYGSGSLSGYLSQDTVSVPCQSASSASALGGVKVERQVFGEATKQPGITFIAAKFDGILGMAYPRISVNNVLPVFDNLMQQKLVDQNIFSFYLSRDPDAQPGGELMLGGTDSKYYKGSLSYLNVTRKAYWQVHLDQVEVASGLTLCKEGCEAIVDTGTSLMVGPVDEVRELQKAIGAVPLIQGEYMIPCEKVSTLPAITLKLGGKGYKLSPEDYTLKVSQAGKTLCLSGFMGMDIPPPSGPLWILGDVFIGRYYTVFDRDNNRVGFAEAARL

Sequence of BACE (P56817 46-501, species assumed): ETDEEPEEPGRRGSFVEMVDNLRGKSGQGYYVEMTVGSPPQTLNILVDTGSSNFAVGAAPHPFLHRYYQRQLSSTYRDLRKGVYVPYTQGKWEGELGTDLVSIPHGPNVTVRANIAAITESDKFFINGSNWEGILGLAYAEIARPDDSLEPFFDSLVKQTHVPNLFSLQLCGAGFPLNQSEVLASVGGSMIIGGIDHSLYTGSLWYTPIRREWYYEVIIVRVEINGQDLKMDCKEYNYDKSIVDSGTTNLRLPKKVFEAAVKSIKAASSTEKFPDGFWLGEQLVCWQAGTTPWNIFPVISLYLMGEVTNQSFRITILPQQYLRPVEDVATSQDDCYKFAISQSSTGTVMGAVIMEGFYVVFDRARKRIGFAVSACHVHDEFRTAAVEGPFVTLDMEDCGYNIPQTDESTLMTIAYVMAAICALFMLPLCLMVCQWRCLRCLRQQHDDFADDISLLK
Sequence of Beta Secretase enzyme (BACE) (P56817 46-501): as the sequence (P56817 46-501, species assumed) above

| Compound | IC50 (BACE) | IC50 [1] | IC50 (Cathepsin D (Cat D)) |
| --- | --- | --- | --- |
| NC1=N[C@@](c2cc(NC(=O)c3ccc(OCc4ncco4)cn3)ccc2F)(C(F)F)[C@H]2C[C@H]2O1 [Example 173, N-(3-((1R,5S,6R)-3-amino-5-(difluoromethyl)-2-oxa-4-azabicyclo[4.1.0]hept-3-en-5-yl)-4-fluorophenyl)-5-(oxazol-2-ylmethoxy) picolinamide] | 0.0789 µM | 0.0366 µM | 1010 µM |
| NC1=N[C@@](CF)(c2nc(NC(=O)c3ccc(Cl)cn3)ccc2F)[C@@H]2C[C@@H]2O1 (stereo in doubt) [Example 106, N-(6-((1S,5R,6S)-3-amino-5-(fluoromethyl)-2-oxa-4-azabicyclo[4.1.0]hept-3-en-5-yl)-5-fluoropyridin-2-yl)-5-chloropicolinamide] | 0.0456 µM | 0.252 µM | 216 µM |
| NC1=N[C@](CF)(c2cc(NC(=O)c3ccc(OCF)cn3)ccc2Cl)[C@H]2C[C@H]2O1 [Example 183, N-(3-((1R,5S,6R)-3-amino-5-(fluoromethyl)-2-oxa-4-azabicyclo[4.1.0]hept-3-en-5-yl)-4-chlorophenyl)-5-(fluoromethoxy) picolinamide] | 0.0218 µM | 0.0998 µM | 882 µM |
| NC1=N[C@@](c2cc(NC(=O)c3csc(C(F)F)n3)ccc2F)(C(F)F)[C@H]2C[C@H]2O1 [Example 149, N-(3-((1R,5S,6R)-3-amino-5-(difluoromethyl)-2-oxa-4-azabicyclo[4.1.0]hept-3-en-5-yl)-4-fluorophenyl)-2-(difluoromethyl)thiazole-4-carboxamide] | 0.152 µM | 0.195 µM | 1700 µM |
| CC#CCOc1ccc(C(=O)Nc2ccc(F)c([C@@]3(CF)N=C(N)O[C@@H]4C[C@@H]43)c2)nc1 [Example 203, N-(3-((1R,5S,6R)-3-amino-5-(fluoromethyl)-2-oxa-4-azabicyclo[4.1.0]hept-3-en-5-yl)-4-fluorophenyl)-5-(but-2-yn-1-yloxy)picolinamide] | 0.0039 µM | 0.0089 µM | 303 µM |
| COCCOCC(=O)Nc1ccc(F)c([C@@]2(C(F)F)N=C(N)O[C@@H]3C[C@@H]32)c1 [Example 255, N-(3-((1R,5S,6R)-3-amino-5-(difluoromethyl)-2-oxa-4-azabicyclo[4.1.0]hept-3-en-5-yl)-4-fluorophenyl)-2-(2-methoxyethoxy) acetamide] | > 15.6 µM | > 40 µM | 666 µM |
| NC1=N[C@@](c2cc(NCc3ccc(Cl)cn3)ccc2F)(C(F)F)[C@H]2C[C@H]2O1 [Example 377, (1R,5S,6R)-5-(5-(((5-chloropyridin-2-yl)methyl)amino)-2-fluorophenyl)-5-(difluoromethyl)-2-oxa-4-azabicyclo[4.1.0]hept-3-en-3-amine] | 1.11 µM | 2.85 µM | 177 µM |
| N#Cc1cnc2c(Nc3ccc(F)c([C@@]4(C(F)F)N=C(N)O[C@@H]5C[C@@H]54)c3)nccc2c1 [Example 446, 8-((3-((1R,5S,6R)-3-amino-5-(difluoromethyl)-2-oxa-4-azabicyclo[4.1.0]hept-3-en-5-yl)-4-fluorophenyl)amino)-1,7-naphthyridine-3-carbonitrile] | 0.107 µM | 0.0558 µM | 658 µM |
| COc1cnc(C(=O)Nc2ccc(Cl)c([C@@]3(C(F)F)N=C(N)O[C@@H]4C[C@@H]43)c2)cn1 [Example 226, N-(3-((1R,5S,6R)-3-amino-5-(difluoromethyl)-2-oxa-4-azabicyclo[4.1.0]hept-3-en-5-yl)-4-chlorophenyl)-5-methoxypyrazine-2-carboxamide] | 0.0394 µM | 0.0895 µM | 363 µM |
| N#Cc1cnc2c(Nc3ccc(F)c([C@@]4(C(F)F)N=C(N)O[C@@H]5C[C@@H]54)c3)ncc(F)c2c1 [Example 352, 8-((3-((1R,5S,6R)-3-amino-5-(difluoromethyl)-2-oxa-4-azabicyclo[4.1.0]hept-3-en-5-yl)-4-fluorophenyl)amino)-5-fluoro-1,7-naphthyridine-3-carbonitrile] | 0.0593 µM | 0.0391 µM | 192 µM |
| NC1=N[C@@](c2cc(NS(=O)(=O)c3ccc(Cl)cn3)ccc2F)(C(F)F)[C@H]2C[C@H]2O1 [Example 421, N-(3-((1R,5S,6R)-3-amino-5-(difluoromethyl)-2-oxa-4-azabicyclo[4.1.0]hept-3-en-5-yl)-4-fluorophenyl)-5-chloropyridine-2-sulfonamide] | > 15.6 µM | 14.2 µM | 224 µM |
| COc1cnc(C(=O)Nc2ccc(Cl)c([C@@]3(C(F)F)N=C(N)O[C@@H]4C[C@@H]43)c2)c(C)c1 [Example 101, N-(3-((1R,5S,6R)-3-amino-5-(difluoromethyl)-2-oxa-4-azabicyclo[4.1.0]hept-3-en-5-yl)-4-chlorophenyl)-5-methoxy-3-methylpicolinamide] | 0.0598 µM | 0.0971 µM | 258 µM |
| Cc1cc(C(F)F)cnc1C(=O)Nc1ccc(Cl)c([C@@]2(CF)N=C(N)O[C@@H]3C[C@@H]32)c1 [Example 122, N-(3-((1R,5S,6R)-3-amino-5-(fluoromethyl)-2-oxa-4-azabicyclo[4.1.0]hept-3-en-5-yl)-4-chlorophenyl)-5-(difluoromethyl)-3-methylpicolinamide] | 0.0148 µM | 0.099 µM | 1070 µM |

The remaining compounds from weak to strong by IC50 (BACE), led by results:

| IC50 (BACE) | IC50 [1] | IC50 (Cathepsin D (Cat D)) | Compound |
| --- | --- | --- | --- |
| 1.33 µM | 2.74 µM | 121 µM | NC1=N[C@@](c2cc(NCC3CCC3)ccc2F)(C(F)F)[C@H]2C[C@H]2O1 [Example 368, (1R,5S,6R)-5-(5-((cyclobutylmethyl)amino)-2-fluorophenyl)-5-(difluoromethyl)-2-oxa-4-azabicyclo[4.1.0]hept-3-en-3-amine] |
| 0.62 µM | 0.357 µM | 1090 µM | Cc1cc(OCC#N)cnc1C(=O)Nc1ccc(F)c([C@@]2(C(F)F)N=C(N)O[C@@H]3C[C@@H]32)c1 [Example 184, N-(3-((1R,5S,6R)-3-amino-5-(difluoromethyl)-2-oxa-4-azabicyclo[4.1.0]hept-3-en-5-yl)-4-fluorophenyl)-5-(cyanomethoxy)-3-methylpicolinamide] |
| 0.561 µM | 1.21 µM | 386 µM | CC#Cc1cnn(-c2ccc(F)c([C@@]3(C(F)F)N=C(N)O[C@@H]4C[C@@H]43)c2)c1 [Example 434, (1R,5S,6R)-5-(difluoromethyl)-5-(2-fluoro-5-(4-(prop-1-yn-1-yl)-1H pyrazol-1-yl)phenyl)-2-oxa-4-azabicyclo[4.1.0]hept-3-en-3-amine] |
| 0.146 µM | 0.048 µM | 924 µM | C=CCOc1cnc(C(=O)Nc2ccc(F)c([C@@]3(C(F)F)N=C(N)O[C@@H]4C[C@@H]43)c2)cn1 [Example 414, 5-(allyloxy)-N-(3-((1R,5S,6R)-3-amino-5-(difluoromethyl)-2-oxa-4-azabicyclo[4.1.0]hept-3-en-5-yl)-4-fluorophenyl)pyrazine-2-carboxamide] |
| 0.103 µM | 0.0613 µM | 373 µM | Cc1nc(C(=O)Nc2ccc(F)c([C@@]3(C(F)F)N=C(N)O[C@@H]4C[C@@H]43)c2)co1 [Example 166, N-(3-((1R,5S,6R)-3-amino-5-(difluoromethyl)-2-oxa-4-azabicyclo[4.1.0]hept-3-en-5-yl)-4-fluorophenyl)-2-methyloxazole-4-carboxamide] |
